Data from US11767302B2, “Reagents and methods for tetrazine synthesis” (University of Delaware, priority 2020, dated 2023).
pIC50: −log10 of the molar value.

Columns and labels:
[1] = Stopped-flow kinetic analysis of tetrazines with eq-5-hydroxy-trans-cyclooctene in PBS buffer at 25° C.; conditions: for k2, second order rate constant / kobs: PBS pH 7.4, 25° C.; for k2, second order rate constant: linear regression of kobs; for kobs: 0.025 mM tetrazine; for krel: relative to 5b, PBS, 25° C.
Method: Solutions (5 mL) of tetrazines 5b, 6c, 5l, 6a and 4f (0.050 mM) were prepared in PBS buffer (pH 7.4). Solutions (10 mL) of eq-5-hydroxy-trans-cyclooctene (0.50, 0.60, 0.70, 0.80 mM) were prepared in PBS buffer (pH 7.4). The reactions between tetrazines and trans-cyclooctene were measured under pseudo-first order conditions using SX 18MV-R stopped-flow spectrophotometer (Applied Photophysics Ltd.). Each solution of tetrazine and trans-cyclooctene were injected in equal volumes via 3 mL syringes into the stopped-flow instrument at 25° C., resulting in final concentration of 0.025 mM of tetrazines and 0.25, 0.30, 0.35, 0.40 mM trans-cyclooctene. The reaction was monitored by the decay of absorbance associated with the tetrazines (5b at 263 nm, 6c at 268 nm, 5l at 274 nm, 6a at 296 nm, 4f at 266 nm). Reaction were repeated in triplicate. With Prism software, an observed rate constant, kobs, was obtained by nonlinear regression. Second order rate constants, k2, were calculated by linear regression between kobs and final concentration of trans-cyclooctene.

[2] = Tetrazine stability in PBS buffer in ambient light at 25° C.; format: physicochemical; conditions: PBS buffer pH 7.4, ambient light, day 0-5
Method: Solutions (3 mL) of tetrazine 5b, 5l and 6c (400 μM) were prepared in PBS buffer (pH 7.4) in vials and stored in ambient light at 25° C. Tetrazine concentrations were determined by recording the absorbance at 518 nm (6c) and 520 nm (5b and 5l) in cuvettes in day 0, 1, 3 and 5. A solution of 6a (50 μM) was prepared in PBS buffer (pH 7.4) in vials and stored in ambient light at room temperature. Tetrazine concentration was determined by recording the absorbance at 520 nm in cuvettes at day 0, 1, 3 and 5.

[3] = Tetrazine stability in Opti-MEM media in ambient light at 25° C.; format: physicochemical; conditions: 400 μM
Method: Solutions (10 mL) of tetrazine 5b and 6c (400 μM) were prepared in Opti-MEM media in vials and stored in ambient light at 25° C. 2 mL of solution was extracted by 2 mL of Et2O in different time point. Tetrazine concentrations were determined by recording the absorbance of Et2O at 545 nm.

[4] = Experimental log P; format: physicochemical
[5] = target: T1, human MAGL enzyme (Homo sapiens, UniProt Q99685); assay: MAGL in vitro activity assay (7-HCA substrate, fluorescence); format: biochemical; conditions: human MAGL pre-treated 30 min at room temperature, 7-HCA substrate 1 h; read-out: IC50, inhibition of MAGL activity in vitro
T1 sequence (Q99685 1-303): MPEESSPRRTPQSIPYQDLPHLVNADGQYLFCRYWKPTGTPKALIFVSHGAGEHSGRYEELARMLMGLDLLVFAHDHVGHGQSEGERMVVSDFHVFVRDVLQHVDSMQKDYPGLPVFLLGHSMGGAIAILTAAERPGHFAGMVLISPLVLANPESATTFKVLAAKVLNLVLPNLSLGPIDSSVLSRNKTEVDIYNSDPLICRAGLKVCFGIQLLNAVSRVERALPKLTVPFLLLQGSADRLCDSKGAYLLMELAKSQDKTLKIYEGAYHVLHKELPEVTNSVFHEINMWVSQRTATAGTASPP
Method: MAGL in vitro activity assay. The MAGL in vitro activity assay was performed based on a reported protocol. Briefly, human MAGL enzyme was pre-treated with compounds at room temperature for 30 min, and subsequently incubated with 7-hydroxycoumarinyl arachidonate (7-HCA) as a substrate at room temperature for 1 h. The fluorescence signals were measured on an Envision plate reader (excitation 355 nm, emission 460 nm).

[6] = target: T2, endogenous MAGL (Homo sapiens, UniProt Q99685); assay: Labeling of endogenous MAGL in live cells, gel-based ABPP with TCO-TAMRA; format: cell-based; conditions: human brain vascular pericytes, probe 1 h, 2 μM TCO-TAMRA 30 min
T2 sequence (Q99685 1-303): T1 sequence (Q99685 1-303)
Method: Cell culture and probe treatment. Human brain vascular pericytes were cultured in Dulbecco's Modified Eagle Medium/Nutrient Mixture F-12 (DMEM/F-12) GlutaMAX media supplemented with 5% heat-inactivated fetal bovine serum (HI FBS), 1× pericyte growth supplement (PGS), and 1× penicillin-streptomycin at 37° C. with 5% CO2 in a humidified environment. Probe treatment was performed in duplicates. Cells were plated in 6-well plates and cultured overnight in growth media. Live cells were then treated with 300 nM KML29 as a competitor compound (or DMSO as a control) at 37° C. for 1 h. Cells were subsequently treated with probe 9 (0.3 nM-3.2 μM) at 37° C. for 1 h (cells pre-treated with KML29 were treated with 32 nM of probe 9), after which the cells were washed with fresh growth media. The media were then placed with fresh media containing 2 μM of TCO-TAMRA, and the cells were incubated at 37° C. for 30 min. To quench the reaction, the media were replaced with PBS containing 100 μM tetrazine amine, and the cells were washed with cold PBS and harvested with a scrapper. The suspensions were centrifuged at 10,000×g for 1 min at 37° C., and the cell pellets were lysed in PBS containing 0.25% sodium dodecyl sulfate (SDS) with sonication. The protein concentration was measured with a bicinchoninic acid (BCA) assay kit (Thermo Scientific) and normalized. In-gel fluorescence and data analysis. The proteomes were analyzed with 1.0 mm thick 4-12% bis-tris 15-well protein gels in 2-(N-morpholino)ethanesulfonic acid (MES) buffer. The gels were scanned with a Typhoon FLA 9500 Biomolecular Imager (GE Healthcare) with the TAMRA channel with 532 nm excitation and a 575 nm long pass emission filter. To measure the total protein loading, the gels were treated with ClearPage Instant Blue (CBS Scientific) overnight, and after brief destaining with water, scanned with an Odyssey Imager (Li-COR) at the 700 nm channel. The in-gel fluorescence images were processed with ImageJ software (v1.47, NIH), and the intensities were quantified with Image Studio (v5.2, Li-COR) with background subtraction. The coomassie images were processed and quantified with the Image Studio software with background subtraction. For analysis of the cellular potency, the in-gel fluorescence intensities of the two MAGL bands were averaged, normalized with the total coomassie intensity of the corresponding sample, and fitted with a dose-response equation with Prism v7.02 (GraphPad). […] The media were then placed with fresh media containing 2 μM of TCO-TAMRA, and the cells were incubated at 37° C. for 30 min. […] The protein concentration was measured with a bicinchoninic acid (BCA) assay kit (Thermo Scientific) and normalized. In-gel fluorescence and data analysis. […]

[7] = tested on: MAGL; assay: Cellular labeling kinetics of TCO-TAMRA with MAGL probes in live human brain vascular pericytes; format: cell-based; conditions: for extent of MAGL labeling at the probe concentration used: 100c 1 μM or 12 32 nM, 37° C., 1 h
Method: To measure the cellular labeling kinetics of TCO-TAMRA with 100c and 12, live cells were treated with 100c (1 μM) or 12 (32 nM) at 37° C. for 1 h. […] Subsequently, the cells were washed with fresh growth media, which were placed with fresh media containing 50 nM, 200 nM, or 2 μM of TCO-TAMRA, and the cells were incubated at 37° C. for 2, 5, 10, 15, 20, 30, and 60 min. To quench the reaction, the media were replaced with PBS containing 100 μM tetrazine amine, and the cells were washed with cold PBS and harvested with a scrapper.
The suspensions were centrifuged at 10,000×g for 1 min at 37° C., and the cell pellets were lysed in PBS containing 0.25% sodium dodecyl sulfate (SDS) with sonication. The protein concentration was measured with a bicinchoninic acid (BCA) assay kit (Thermo Scientific) and normalized.
In-gel fluorescence and data analysis. Same procedure as described in Example 17 was used.

[8] = Stopped-flow kinetic analysis of MAGL tetrazines with eq-5-hydroxy-trans-cyclooctene in MeOH at 25° C.; conditions: for kobs: 0.04 mM tetrazine, 0.40 mM trans-cyclooctene, MeOH; for kobs / krel: 25° C.; for krel: relative to 12, MeOH
Method: Solutions (3 mL) of tetrazines 100a, 100b, 100c and 12 (0.080 mM) was prepared in MeOH. Solutions (3 mL) of eq-5-hydroxy-trans-cyclooctene (0.80 mM) were prepared in MeOH. The reactions between tetrazines and trans-cyclooctene were measured under pseudo-first order conditions using SX 18MV-R stopped-flow spectrophotometer (Applied Photophysics Ltd.). Each solution of tetrazine and trans-cyclooctene were injected in equal volumes via 3 mL syringes into the stopped-flow instrument at 25° C., resulting in final concentration of 0.04 mM of tetrazines and 0.40 mM trans-cyclooctene. The reaction was monitored by the decay of absorbance associated with the tetrazines (10a and 10b at 300 nm, 10c at 280 nm). Reaction were repeated in triplicate. With Prism software, an observed rate constant, kobs, was obtained by nonlinear regression.

[9] = 30° C. to 400/500° C. at 5° C./min
Method: DSC data was obtained on a Mettler-Toledo Differential Scanning Calorimeter 3+. Samples were loaded into a goldplated high-pressure pan, held at 30° C. for 10 minutes, then a gradient of 30° C. to 400/500° C. at 5° C./min.

Row | decomposition per day [2] [%] | decomposition per day [3] [%] | logP [4] | SMILES | k2, second order rate constant [1] [M⁻¹ s⁻¹] | kobs ([1]; TCO 0.25 mM) [s⁻¹] | kobs ([1]; TCO 0.30 mM) [s⁻¹] | kobs ([1]; TCO 0.35 mM) [s⁻¹] | kobs ([1]; TCO 0.40 mM) [s⁻¹] | krel [1] | extent of MAGL labeling at the probe concentration used [7] | kobs [8] [s⁻¹] | krel [8] | further results
1 | 1.8 | 6.7 | 2.2 | COC(=O)CCc1nnc(-c2ccccc2)nn1 [5b, methyl 3-(6-phenyl-1,2,4,5-tetrazin-3-yl)propanoate] | 197.9 ± 13.36 | 0.57 | 0.065 | 0.075 | 0.87 | 1.0 | – | – | – | –
2 | 3.9 | 10.8 | 0.89 | C=C(OCC)c1nnc(CCC(=O)OC)nn1 [6c, methyl 3-(6-(1-ethoxyvinyl)-1,2,4,5-tetrazin-3-yl)propanoate] | 833 ± 35.7 | 0.20 | 0.24 | 0.28 | 0.33 | 4.2 | – | – | – | times faster than 5b ([1]; reaction with 5-hydroxyTCO): 4.2 times
3 | – | – | – | O=C(OC(C(F)(F)F)C(F)(F)F)N1CCC(CNS(=O)(=O)c2ccc(-c3nncnn3)cc2)CC1 [100c, 1,1,1,3,3,3-hexafluoropropan-2-yl 4-((4-(1,2,4,5-tetrazin-3-yl)phenylsulfonamido)methyl)piperidine-1-carboxylate] | – | – | – | – | – | – | full labeling of MAGL | 0.2011 | 162 | pIC50 [5]: 7.80; labeling of MAGL by gel-based ABPP [6]: strong labeling of MAGL; time at which labeling was complete ([7]; 100c 1 μM 1 h, then 2 μM TCO-TAMRA, first data point): ≤ 2 min; times more reactive than 100b ([8]; stopped flow kinetics with 5-hydroxyTCO): 6.5 times
4 | – | – | – | Cc1nnc(SCc2ccc(-c3ccccc3)cc2)nn1 [b-Tz, 3-([1,1′-biphenyl]-4-ylmethylthio)-6-methyl-1,2,4,5-tetrazine] | – | – | – | – | – | – | – | – | – | DSC onset temperature [9]: 170 °C; DSC transition enthalpy [9]: 900 J/g
5 | – | – | – | Cc1nnc(-c2ccc(-n3ccc(C4CCN(C(=O)OC(C(F)(F)F)C(F)(F)F)CC4)n3)cc2)nn1 [compound 12, reference compound] | – | – | – | – | – | – | full labeling of MAGL | 0.001244 | 1 | –
